Where a SMILES comes first, the peptide text is derived from it. [ ]: non-standard residue; d: D form. The star is where a group is joined. ξ: configuration not given here. Aoe(9ξ) = N[C@@H](CCCCCC(=O)C1CO1)C(=O)O; AMC = Cc1cc(=O)oc2cc(N*)ccc12; dPip = O=C(O)[C@H]1CCCCN1
What was measured:
[1] = biological target: T1, zCD1 (Danio rerio, UniProt F8W4B7); test: Steady-state kinetics, fluorogenic substrates; assay type: biochemical
T1 sequence (F8W4B7 60-419): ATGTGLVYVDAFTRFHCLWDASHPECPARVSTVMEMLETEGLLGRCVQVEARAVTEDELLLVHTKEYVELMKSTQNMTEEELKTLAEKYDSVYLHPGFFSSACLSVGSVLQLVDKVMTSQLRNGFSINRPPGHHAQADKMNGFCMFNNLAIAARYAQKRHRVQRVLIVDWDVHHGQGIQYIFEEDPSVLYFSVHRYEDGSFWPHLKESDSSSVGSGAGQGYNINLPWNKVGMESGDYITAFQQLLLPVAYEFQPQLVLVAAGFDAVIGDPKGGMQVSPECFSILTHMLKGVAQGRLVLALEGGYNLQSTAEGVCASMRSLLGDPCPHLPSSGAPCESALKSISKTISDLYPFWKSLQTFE

[2] = test system: maize HD1-B (a class I HDAC); details: cited from earlier work
[3] = test system: HD1-A (a class II HDAC); details: cited from earlier work
[4] = test system: HDAC1; details: cited from earlier work
[5] = test system: HDAC6; details: cited from earlier work

CC(=O)NCCCC[C@H](NC(=O)CNC(=O)[C@H](CCCNC(=N)N)NC(C)=O)C(=O)Nc1ccc2c(C)cc(=O)oc2c1 [Substrate 8, Ac-Arg-Gly-Lys(Ac)-AMC] (Ac-Arg-Gly-Lys(Ac)-{AMC})
kcat/KM reduced, zCD1 compared with zCD2 [1]: 7 fold

C[C@@H]1NC(=O)[C@H]2CCCN2C(=O)[C@H](CCCCCC(=O)[C@@H]2CO2)NC(=O)[C@@H](C)NC1=O [HC toxin, cyclo-(L-Ala-D-Ala-L-Aoe-D-Pro)]
mode of inhibition [2]: irreversible inhibition
mode of inhibition [3]: reversible inhibition

O=C(CCCCC[C@@H]1NC(=O)[C@H]2CCCCN2C(=O)[C@H](Cc2ccccc2)NC(=O)[C@H](Cc2ccccc2)NC1=O)C1CO1 (some centres unmarked) [trapoxin] (cyclo(FF[dPip][Aoe(9ξ)]))
mode of inhibition [4]: potent irreversible inhibitor
mode of inhibition [5]: reversible inhibitor

Reference: article PMC4990478 (Nature chemical biology, 2016)
